Data as given in ChEMBL document CHEMBL4619712, “Double-component diazeniumdiolate derivatives as anti-cancer agents” (Bioorg Med Chem, 2020).

Assays:
BT-474 = assay: Anticancer activity against human BT474 cells assessed as inhibition of cell growth after 72 hrs by MTT or MTS assay; format: functional, cell-based; conditions: BT-474, 72 h
Jurkat E6.1 = assay: Anticancer activity against human Jurkat E6-1 cells assessed as inhibition of cell growth after 72 hrs by MTT or MTS assay; format: functional, cell-based; conditions: Jurkat E6.1, 72 h
[1] = Prodrug conversion assessed as Escherichia coli GST catalyzed NO release at 1 uM measured after 5 hrs in presence of GSH by DAF-FM DA reagent based fluorescence spectrophotometric analysis; format: ADME
CCRF-CEM = assay: Anticancer activity against human CCRF-CEM cells assessed as inhibition of cell growth after 72 hrs by MTT or MTS assay; format: functional, cell-based
A549 = assay: Anticancer activity against human A549 cells assessed as inhibition of cell growth after 72 hrs by MTT or MTS assay; format: functional, cell-based; conditions: A549, 72 h
MDA-MB-231 = assay: Anticancer activity against human MDA-MB-231 cells assessed as inhibition of cell growth after 72 hrs by MTT or MTS assay; format: functional, cell-based; conditions: MDA-MB-231, 72 h

Structure (SMILES) | IC50 (BT-474) | IC50 (Jurkat E6.1) | fold change (FC) [1] | IC50 (CCRF-CEM) | IC50 (A549) | IC50 (MDA-MB-231)
O=[N+]([O-])c1ccc(O/N=[N+](\[O-])N2CCN(CCN3CCN(/[N+]([O-])=N/Oc4ccc([N+](=O)[O-])cc4[N+](=O)[O-])CC3)CC2)c([N+](=O)[O-])c1 | 10.7 µM | 3.71 µM | 2 | 2.64 µM | 17.1 µM | 17.6 µM
CCOC(=O)N1CCN(/[N+]([O-])=N/Oc2ccc([N+](=O)[O-])cc2[N+](=O)[O-])CC1 | 3.66 µM | 0.92 µM |  | 0.89 µM | 2.11 µM | 7.93 µM
